Legend:
[1] = xn = mol fraction of the nth substance listed; conditions: 101 kPa, Liquid
[2] = excess molar enthalpy (molar enthalpy of mixing); xn = mol fraction of the nth substance listed; conditions: 101 kPa, Liquid, Flow calorimetry

CC1CCCO1 (configuration not stated) [2-methyltetrahydrofuran] + CCCCO
Conditions	excess molar enthalpy [kcal/mol]	mass density [kg/m3]	speed of sound [m/s]	viscosity [mPa·s]
[1], 283.15 K, x1 = 0.0447	–	–	1292.4	–
[1], 283.15 K, x1 = 0.0518	–	–	–	3.231
[1], 283.15 K, x1 = 0.0539	–	820.03	–	–
[1], 283.15 K, x1 = 0.1047	–	822.92	–	–
[1], 283.15 K, x1 = 0.1048	–	–	–	2.67
[1], 283.15 K, x1 = 0.1154	–	–	1292.6	–
[1], 283.15 K, x1 = 0.2068	–	828.51	–	–
[1], 283.15 K, x1 = 0.2123	–	–	–	1.958
[1], 283.15 K, x1 = 0.2143	–	–	1291.5	–
[1], 283.15 K, x1 = 0.2451	–	–	1291	–
[1], 283.15 K, x1 = 0.3108	–	833.9	–	–
[1], 283.15 K, x1 = 0.3159	–	–	–	1.507
[1], 283.15 K, x1 = 0.4147	–	839.04	–	–
[1], 283.15 K, x1 = 0.4197	–	–	–	1.218
[1], 283.15 K, x1 = 0.4221	–	–	1286.8	–
[1], 283.15 K, x1 = 0.4893	–	842.56	–	–
[1], 283.15 K, x1 = 0.5195	–	–	–	1.013
[1], 283.15 K, x1 = 0.5204	–	–	1284	–
[1], 283.15 K, x1 = 0.6172	–	–	1281.2	–
[1], 283.15 K, x1 = 0.6195	–	848.41	–	–
[1], 283.15 K, x1 = 0.6211	–	–	–	0.865
[1], 283.15 K, x1 = 0.7116	–	–	–	0.76
[1], 283.15 K, x1 = 0.7128	–	–	1278.1	–
[1], 283.15 K, x1 = 0.724	–	852.97	–	–
[1], 283.15 K, x1 = 0.8078	–	–	1275.2	–
[1], 283.15 K, x1 = 0.8103	–	–	–	0.675
[1], 283.15 K, x1 = 0.8923	–	859.92	–	–
[1], 283.15 K, x1 = 0.8952	–	–	1272.2	–
[1], 283.15 K, x1 = 0.9246	–	–	–	0.607
[1], 283.15 K, x1 = 0.9364	–	–	1270.3	–
[1], 283.15 K, x1 = 0.9585	–	–	–	0.584
[1], 298.15 K, x1 = 0.0341	–	–	1242.6	–
[1], 298.15 K, x1 = 0.0518	–	–	–	2.212
[1], 298.15 K, x1 = 0.102	–	811.16	–	–
[1], 298.15 K, x1 = 0.1048	–	–	–	1.914
[1], 298.15 K, x1 = 0.1054	–	–	1241.6	–
[1], 298.15 K, x1 = 0.2068	–	816.38	–	–
[1], 298.15 K, x1 = 0.2085	–	–	1238.8	–
[1], 298.15 K, x1 = 0.2123	–	–	–	1.446
[1], 298.15 K, x1 = 0.2968	–	–	1235.7	–
[1], 298.15 K, x1 = 0.3108	–	821.37	–	–
[1], 298.15 K, x1 = 0.3159	–	–	–	1.145
[1], 298.15 K, x1 = 0.3535	–	–	1233.4	–
[1], 298.15 K, x1 = 0.4152	–	826.08	–	–
[1], 298.15 K, x1 = 0.4197	–	–	–	0.951
[1], 298.15 K, x1 = 0.4283	–	–	1230.3	–
[1], 298.15 K, x1 = 0.4848	–	829.16	–	–
[1], 298.15 K, x1 = 0.5058	–	–	1226.8	–
[1], 298.15 K, x1 = 0.5195	–	–	–	0.806
[1], 298.15 K, x1 = 0.6075	–	–	1222.2	–
[1], 298.15 K, x1 = 0.6191	–	834.74	–	–
[1], 298.15 K, x1 = 0.6211	–	–	–	0.701
[1], 298.15 K, x1 = 0.7077	–	–	1217.6	–
[1], 298.15 K, x1 = 0.7116	–	–	–	0.626
[1], 298.15 K, x1 = 0.7245	–	838.88	–	–
[1], 298.15 K, x1 = 0.8103	–	–	–	0.563
[1], 298.15 K, x1 = 0.8111	–	–	1212.6	–
[1], 298.15 K, x1 = 0.8157	–	842.28	–	–
[1], 298.15 K, x1 = 0.8911	–	845.05	–	–
[1], 298.15 K, x1 = 0.8947	–	–	1208.3	–
[1], 298.15 K, x1 = 0.9246	–	–	–	0.507
[1], 298.15 K, x1 = 0.9337	–	–	1206.1	–
[1], 298.15 K, x1 = 0.9585	–	–	–	0.502
[1], 313.15 K, x1 = 0.0518	–	–	–	1.555
[1], 313.15 K, x1 = 0.0519	–	–	1184.6	–
[1], 313.15 K, x1 = 0.1038	–	799.46	–	–
[1], 313.15 K, x1 = 0.1048	–	–	–	1.361
[1], 313.15 K, x1 = 0.1237	–	–	1181.8	–
[1], 313.15 K, x1 = 0.2098	–	804.34	–	–
[1], 313.15 K, x1 = 0.2123	–	–	–	1.085
[1], 313.15 K, x1 = 0.2168	–	–	1177.7	–
[1], 313.15 K, x1 = 0.3097	–	–	1172.9	–
[1], 313.15 K, x1 = 0.3139	–	808.86	–	–
[1], 313.15 K, x1 = 0.3159	–	–	–	0.896
[1], 313.15 K, x1 = 0.4133	–	–	1167.2	–
[1], 313.15 K, x1 = 0.4135	–	813	–	–
[1], 313.15 K, x1 = 0.4197	–	–	–	0.759
[1], 313.15 K, x1 = 0.4906	–	816.02	–	–
[1], 313.15 K, x1 = 0.511	–	–	1161.3	–
[1], 313.15 K, x1 = 0.5195	–	–	–	0.651
[1], 313.15 K, x1 = 0.6175	–	820.8	–	–
[1], 313.15 K, x1 = 0.6211	–	–	–	0.574
[1], 313.15 K, x1 = 0.6561	–	–	1152.6	–
[1], 313.15 K, x1 = 0.7116	–	–	–	0.518
[1], 313.15 K, x1 = 0.7256	–	824.59	–	–
[1], 313.15 K, x1 = 0.7265	–	–	1148.3	–
[1], 313.15 K, x1 = 0.8103	–	–	–	0.473
[1], 313.15 K, x1 = 0.8151	–	–	1142.7	–
[1], 313.15 K, x1 = 0.8172	–	827.71	–	–
[1], 313.15 K, x1 = 0.8909	–	830.17	–	–
[1], 313.15 K, x1 = 0.8995	–	–	1137.1	–
[1], 313.15 K, x1 = 0.9246	–	–	–	0.432
[1], 313.15 K, x1 = 0.9476	–	–	1133.5	–
[1], 313.15 K, x1 = 0.9585	–	–	–	0.425
[2], 283.15 K, x1 = 0.054	0.0237	–	–	–
[2], 283.15 K, x1 = 0.104	0.0492	–	–	–
[2], 283.15 K, x1 = 0.206	0.092	–	–	–
[2], 283.15 K, x1 = 0.308	0.131	–	–	–
[2], 283.15 K, x1 = 0.411	0.154	–	–	–
[2], 283.15 K, x1 = 0.51	0.166	–	–	–
[2], 283.15 K, x1 = 0.609	0.166	–	–	–
[2], 283.15 K, x1 = 0.708	0.151	–	–	–
[2], 283.15 K, x1 = 0.806	0.121	–	–	–
[2], 283.15 K, x1 = 0.907	0.0696	–	–	–
[2], 283.15 K, x1 = 0.953	0.038	–	–	–
[2], 298.15 K, x1 = 0.054	0.0263	–	–	–
[2], 298.15 K, x1 = 0.104	0.0526	–	–	–
[2], 298.15 K, x1 = 0.206	0.102	–	–	–
[2], 298.15 K, x1 = 0.308	0.14	–	–	–
[2], 298.15 K, x1 = 0.411	0.166	–	–	–
[2], 298.15 K, x1 = 0.51	0.179	–	–	–
[2], 298.15 K, x1 = 0.609	0.178	–	–	–
[2], 298.15 K, x1 = 0.708	0.162	–	–	–
[2], 298.15 K, x1 = 0.806	0.129	–	–	–
[2], 298.15 K, x1 = 0.907	0.0741	–	–	–
[2], 298.15 K, x1 = 0.953	0.0406	–	–	–
[2], 313.15 K, x1 = 0.054	0.0277	–	–	–
[2], 313.15 K, x1 = 0.104	0.0559	–	–	–
[2], 313.15 K, x1 = 0.206	0.109	–	–	–
[2], 313.15 K, x1 = 0.308	0.151	–	–	–
[2], 313.15 K, x1 = 0.411	0.179	–	–	–
[2], 313.15 K, x1 = 0.51	0.193	–	–	–
[2], 313.15 K, x1 = 0.609	0.192	–	–	–
[2], 313.15 K, x1 = 0.708	0.174	–	–	–
[2], 313.15 K, x1 = 0.806	0.138	–	–	–
[2], 313.15 K, x1 = 0.907	0.0786	–	–	–
[2], 313.15 K, x1 = 0.953	0.0428	–	–	–
